Data taken from patent US9957264B2 (Merck Sharp & Dohme Corp., priority 2013, dated 2018).

Columns and labels:
[1] = biological target: JAK2 (recombinant purified GST-tagged catalytic domain) (Homo sapiens (Human), UniProt O60674); assay: Jak Biochemical HTRF Assay (JAK2); details: [ATP] 8.5 μM
[2] = biological target: JAK1 (recombinant purified GST-tagged catalytic domain) (Homo sapiens (Human), UniProt P23458); assay: Jak Biochemical HTRF Assay (JAK1); details: [ATP] 31.8 μM
Procedure, shortened: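 Read-out is the 665/615 nm time-resolved FRET ratio from Eu-pY20 antibody and streptavidin-Dylight 650 bound to phosphorylated biotin-peptide. Reactions ran 120 min at room temperature after ATP start. Inhibition normalized to untreated controls gave IC50 via 4-parameter fit.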

Chain of JAK2 (recombinant purified GST-tagged catalytic domain) (O60674 849-1124): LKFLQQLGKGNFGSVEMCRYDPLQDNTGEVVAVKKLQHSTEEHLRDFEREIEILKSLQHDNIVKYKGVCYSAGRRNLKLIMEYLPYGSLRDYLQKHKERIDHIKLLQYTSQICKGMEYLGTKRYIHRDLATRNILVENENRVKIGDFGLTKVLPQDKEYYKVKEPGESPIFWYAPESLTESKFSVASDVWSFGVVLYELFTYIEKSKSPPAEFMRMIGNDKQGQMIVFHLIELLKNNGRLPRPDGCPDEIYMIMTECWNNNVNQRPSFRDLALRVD
Chain of JAK1 (recombinant purified GST-tagged catalytic domain) (P23458 875-1153): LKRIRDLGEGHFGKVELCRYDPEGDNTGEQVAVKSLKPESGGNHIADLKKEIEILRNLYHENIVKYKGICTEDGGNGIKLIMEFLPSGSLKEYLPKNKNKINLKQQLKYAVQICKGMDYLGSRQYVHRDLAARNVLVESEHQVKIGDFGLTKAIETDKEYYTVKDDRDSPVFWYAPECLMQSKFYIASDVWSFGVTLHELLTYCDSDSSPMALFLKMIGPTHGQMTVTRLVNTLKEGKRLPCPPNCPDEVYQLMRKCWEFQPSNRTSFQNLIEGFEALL

Row | SMILES | IC50 [1] | IC50 [2]
1 | CC(C)(C)OC(=O)[C@@H]1CC[C@@](CC#N)(n2nc(Nc3ccccc3)c3c(=O)[nH]ccc32)CO1 [Example 5-54, (2S,5S)-tert-butyl 5-(cyanomethyl)-5-(4-oxo-3-(phenylamino)-4,5-dihydro-1H-pyrazolo[4,3-c]pyridin-1-yl)tetrahydro-2H-pyran-2-carboxylate] | 1.62 nM | 0.12 nM
2 | CC(C)(C)NC(c1ccc(Nc2nn([C@]3(CC#N)CC[C@@H](C(=O)OC(C)(C)C)OC3)c3cc[nH]c(=O)c23)cc1)C(F)(F)F (single isomer, unassigned) [Example 5-194, (2S,5S)-tert-butyl 5-(3-((4-((R or S)-1-(tert-butylamino)-2,2,2-trifluoroethyl)phenyl)amino)-4-oxo-4,5-dihydro-1H-pyrazolo [4,3-c]pyridin-1-yl)-5-(cyanomethyl)tetrahydro-2H-pyran-2-carboxylate] | 0.82 nM | 0.52 nM
3 | CN(C)S(=O)(=O)c1ccc(Nc2nn(C3(CC#N)CCN(Cc4ccccc4F)CC3)c3cc[nH]c(=O)c23)cc1 [Example 8-9, 4-({1-[4-(cyanomethyl)-1-(2-fluorobenzyl)piperidin-4-yl]-4-oxo-4,5-dihydro-1H-pyrazolo[4,3-c]pyridin-3-yl}amino)-N,N-dimethylbenzenesulfonamide] | 0.28 nM | 0.19 nM
4 | CC(C)(C)OC(=O)[C@@H]1CC[C@@](CC#N)(n2nc(Nc3ccc(C(O)C(F)(F)F)cc3)c3c(=O)[nH]ccc32)CO1 (single isomer, unassigned) [Example 5-169, (2S,5S)-tert-butyl 5-(cyanomethyl)-5-(4-oxo-3-((4-((S or R)-2,2,2-trifluoro-1-hydroxyethyl)phenyl)amino)-4,5-dihydro-1H-pyrazolo [4,3-c]pyridin-1-yl)tetrahydro-2H-pyran-2-carboxylate] | 0.41 nM | 0.1 nM
5 | CNS(=O)(=O)c1ccc(Nc2nn([C@]3(CC#N)CC[C@@H](C(=O)OC(C)(C)C)OC3)c3cc[nH]c(=O)c23)cc1 [Example 5-94, (2S,5S)-tert-butyl 5-(cyanomethyl)-5-(3-((4-(N-methylsulfamoyl)phenyl)amino)-4-oxo-4,5-dihydro-1H-pyrazolo[4,3-c]pyridin-1-yl)tetrahydro-2H-pyran-2-carboxylate] | 0.18 nM | 0.04 nM
6 | N#CC[C@@]1(n2nc(Nc3ccc(S(=O)(=O)N4CCOCC4)cc3)c3c(=O)[nH]ccc32)CCCOC1 [Example 5-204, [(3S)-3-(3-{[4-(morpholin-4-ylsulfonyl)phenyl]amino}-4-oxo-4,5-dihydro-1H-pyrazolo[4,3-c]pyridin-1-yl)tetrahydro-2H-pyran-3-yl]acetonitrile] | 0.48 nM | 0.29 nM
7 | CN(C(C)(C)C)S(=O)(=O)c1ccc(Nc2nn(C3(CC#N)CCOCC3)c3cc[nH]c(=O)c23)cc1 [Example 5-253, N-(tert-butyl)-4-((1-(4-(cyanomethyl)tetrahydro-2H-pyran-4-yl)-4-oxo-4,5-dihydro-1H-pyrazolo[4,3-c]pyridin-3-yl)amino)-N-methylbenzenesulfonamide] | 1.4 nM | 0.72 nM
8 | CCNc1nn(C2(CC#N)CN(C(=O)OC(C)(C)C)C2)c2cc[nH]c(=O)c12 [Example 2-4, tert-butyl 3-(cyanomethyl)-3-[3-(ethylamino)-4-oxo-4,5-dihydro-1H-pyrazolo [4,3-c]pyridin-1-yl] azetidine-1-carboxylate] | > 1480 nM | 208 nM
9 | CC1CN(S(=O)(=O)c2ccc(Nc3nn([C@]4(CC#N)CCCOC4)c4cc[nH]c(=O)c34)cc2)C1 [Example 5-106, {(3S)-3-[3-({4-[(3-methylazetidin-1-yl)sulfonyl]phenyl}amino)-4-oxo-4,5-dihydro-1H-pyrazolo[4,3-c]pyridin-1-yl]tetrahydro-2H-pyran-3-yl}acetonitrile] | 0.99 nM | 0.39 nM
10 | CC(C)(C)OC(=O)N1CCC(CC#N)(n2nc(Nc3cc(Cn4ccnn4)cc(Cn4nccn4)c3)c3c(=O)[nH]ccc32)CC1 [Example 5-64, tert-butyl 4-(3-(3-((1H-1,2,3-triazol-1-yl)methyl)-5-((2H-1,2,3-triazol-2-yl)methyl)phenylamino)-4-oxo-4,5-dihydropyrazolo [4,3-c]pyridin-1-yl)-4-(cyanomethyl)piperidine-1-carboxylate] | 0.46 nM | 0.57 nM
11 | CC(c1c(F)cccc1F)N1CCC(CC#N)(n2nc(Nc3ccc(S(=O)(=O)N(C)C)cc3)c3c(=O)[nH]ccc32)CC1 (stereo not shown) [Example 8-17, 4-((1-(4-(cyanomethyl)-1-(1-(2,6-difluorophenyl)ethyl)piperidin-4-yl)-4-oxo-4,5-dihydro-1H-pyrazolo[4,3-c]pyridin-3-yl)amino)-N,N-dimethylbenzenesulfonamide] | 3.26 nM | 1.4 nM

Next, values leading:

Row | IC50 [1] | IC50 [2] | SMILES
12 | 0.15 nM | 0.1 nM | Cc1cc(Nc2nn([C@]3(CC#N)CC[C@@H](C(=O)OC(C)(C)C)OC3)c3cc[nH]c(=O)c23)ccc1C(=O)N1C[C@@H]2C[C@H]1CO2 [Example 20-16, (2S,5S)-tert-butyl 5-(3-((4-((1S,4S)-2-oxa-5-azabicyclo[2.2.1]heptane-5-carbonyl)-3-methylphenyl)amino)-4-oxo-4,5-dihydro-1H-pyrazolo[4,3-c]pyridin-1-yl)-5-(cyanomethyl)tetrahydro-2H-pyran-2-carboxylate]
13 | 0.17 nM | 0.15 nM | Cc1cc(Nc2nn(C3(CC#N)CCN(c4ccc(C#N)cn4)CC3)c3cc[nH]c(=O)c23)ccc1C(=O)N1CCSCC1 [Example 15-5, 6-(4-(cyanomethyl)-4-(3-((3-methyl-4-(thiomorpholine-4-carbonyl)phenyl)amino)-4-oxo-4,5-dihydro-1H-pyrazolo[4,3-c]pyridin-1-yl)piperidin-1-yl)nicotinonitrile]
14 | 0.09 nM | 0.1 nM | Cc1cc(Nc2nn(C3(CC#N)CCN(c4ccc(C#N)cn4)CC3F)c3cc[nH]c(=O)c23)ccc1C(=O)N1CCSCC1 (stereo in doubt) [Example 15-6, 6-((3R,4R)-4-(cyanomethyl)-3-fluoro-4-(3-((3-methyl-4-(thiomorpholine-4-carbonyl)phenyl)amino)-4-oxo-4,5-dihydro-1H-pyrazolo[4,3-c]pyridin-1-yl)piperidin-1-yl)nicotinonitrile]
15 | 16.9 nM | 1.81 nM | CN1Cc2cc(Nc3nn([C@]4(CC#N)CC[C@H](N5CC(F)C5)CC4)c4cc[nH]c(=O)c34)ccc2S1(=O)=O [Example 18-31]
16 | 0.61 nM | 0.27 nM | COCC(C)OC(=O)N1CCC(CC#N)(n2nc(Nc3ccc(S(=O)(=O)N(C)C)cc3)c3c(=O)[nH]ccc32)CC1 (stereo not shown) [Example 11-5, 1-methoxypropan-2-yl 4-(cyanomethyl)-4-(3-((4-(N,N-dimethylsulfamoyl)phenyl)amino)-4-oxo-4,5-dihydro-1H-pyrazolo[4,3-c]pyridin-1-yl)piperidine-1-carboxylate]
17 | 1.96 nM | 1.11 nM | CO[C@H](c1ccc(Nc2nn(C3(CC#N)CCN(C(=O)OC(C)(C)C)CC3)c3cc[nH]c(=O)c23)cc1)C(F)(F)F (single isomer, unassigned) [Example 21-9, tert-butyl 4-(cyanomethyl)-4-[4-oxo-3-({4-[(1R or 1S)-2,2,2-trifluoro-1-methoxyethyl]phenyl}amino)-4,5-dihydro-1H-pyrazolo[4,3-c]pyridin-1-yl]piperidine-1-carboxylate]
